The target in this series is T1, CYP2C8 (Homo sapiens, UniProt P10632).
T1 sequence (P10632 1-490): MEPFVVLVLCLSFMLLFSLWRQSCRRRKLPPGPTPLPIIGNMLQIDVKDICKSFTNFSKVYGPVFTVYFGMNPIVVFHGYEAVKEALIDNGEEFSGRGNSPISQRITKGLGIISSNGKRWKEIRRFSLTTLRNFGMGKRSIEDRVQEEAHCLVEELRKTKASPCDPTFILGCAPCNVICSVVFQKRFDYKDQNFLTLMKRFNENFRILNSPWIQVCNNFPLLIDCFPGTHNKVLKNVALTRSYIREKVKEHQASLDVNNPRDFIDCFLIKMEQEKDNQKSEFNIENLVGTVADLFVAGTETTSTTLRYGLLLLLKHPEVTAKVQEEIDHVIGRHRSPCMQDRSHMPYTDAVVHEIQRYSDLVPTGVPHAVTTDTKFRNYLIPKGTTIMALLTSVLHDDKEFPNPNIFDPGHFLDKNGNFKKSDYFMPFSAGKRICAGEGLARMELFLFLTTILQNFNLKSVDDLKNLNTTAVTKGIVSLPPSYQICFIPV
The series is described as follows: Clinical drug-drug interaction study in healthy volunteers (pioglitazone with/without relacorilant). Conditions: Treatment E (with relacorilant 350 mg) vs Treatment B (alone).

This is an account of results in US20260256759A1, “CONCOMITANT ADMINISTRATION OF GLUCOCORTICOID RECEPTOR MODULATOR RELACORILANT AND CYP2C8 SUBSTRATES” (priority 2020, published 2026).

Each structure is given as a SMILES string.

Protocol: An open-label, crossover study was conducted in healthy subjects to determine the effect of relacorilant on the plasma exposure of pioglitazone, a known probe substrate CYP2C8. A single dose of 15 mg of pioglitazone was administered alone and pharmacokinetic (PK) samples were collected before dosing (0 hour) and at 0.5, 1, 1.5, 2, 2.5, 3, 4, 6, 8, 12, 18, 24, 36, 48, 60, and 72 hours post-dose. Relacorilant (350 mg) was then administered once a day for 10 consecutive days. On the following day, a single dose of 15 mg of pioglitazone was administered in combination with relacorilant 350 mg and pharmacokinetic (PK) samples were again collected at pre-dose through 72 hours post-dose at the same timepoints as described above. The plasma concentrations of pioglitazone and its metabolite, pioglitazone M4 were evaluated by validated bioanalytical assays on each dosing occasion of pioglitazone.

In the case of `CCc1ccc(CCOc2ccc(CC3SC(=O)NC3=O)cc2)nc1` (stereo not drawn) [Pioglitazone, pioglitazone], the “AUC0-tz, Ratio of Geometric LSMs (Test/Reference)” value turned out to be 74.71%; the “AUCinf, Ratio of Geometric LSMs (Test/Reference)” value is 74.83%; the “Cmax, Ratio of Geometric LSMs (Test/Reference)” value came out at 77.82%.
